{"source": "paper PMC12686126", "about": "“LL‐37 Inhibits TMPRSS2‐Mediated S2' Site Cleavage and SARS‐CoV‐2 Infection but Not Omicron Variants” (Cell Proliferation, 2025)", "key": {"[1]": {"system": "TMPRSS2", "assay": "TMPRSS2 activity measurement", "format": "cell-based, human", "details": "293T‐T2 cells, 2 h at 37°C; Boc‐Phe‐Ser‐Arg‐MCA 100 μM, fluorescence 360/460 nm; LL‐37 0–20 μg/mL, CM and E64d 0–100 μM", "experimental": "293T‐T2 cells (5 × 10^4/well) in a black 96‐well flat‐bottom plate were treated for 2 h at 37°C with LL‐37 (0, 1, 5, 10, 20 μg/mL), camostat mesylate (0, 0.1, 0.5, 1, 5, 10, 50, 100 μM, MedChemExpress), or E64d (0, 0.1, 0.5, 1, 5, 10, 50, 100 μM, MedChemExpress). The peptide and inhibitors were prepared with DMEM free of FBS. To measure the proteolytic activity of TMPRSS2, the medium was replaced with 100 μL of DMEM free of FBS and phenol red and containing 100 μM of Boc‐Phe‐Ser‐Arg‐MCA (Peptide, Japan). The fluorescence intensity was measured after 2 h of incubation at 37°C using a microplate reader (Biotek, USA). The excitation/emission wavelengths were 360/460 nm. The values were expressed as a percent of fluorescence intensity relative to the control. Camostat mesylate and E64d were used as the positive and negative controls respectively. All procedures were carried out in the dark."}, "[2]": {"system": "SARS‐CoV‐2", "details": "cited from earlier work"}, "[3]": {"system": "SARS‐CoV‐2 spike pseudovirus", "format": "cell-based"}, "[4]": {"system": "Delta spike", "format": "cell-based, SARS‐CoV‐2 Delta"}, "[5]": {"system": "BA.4/5 spike", "format": "cell-based, SARS‐CoV‐2 Omicron BA.4/5"}, "[6]": {"system": "SARS‐CoV‐2 spike", "format": "cell-based"}, "[7]": {"system": "BA.1 spike", "format": "cell-based, SARS‐CoV‐2 Omicron BA.1"}, "[8]": {"system": "293T‐A2 and 293T‐Mock cell membranes", "format": "cell-based", "details": "293T-A2 vs 293T-Mock cells treated 2 h with LL-37; western blot (Figure S4A)"}, "[9]": {"system": "SARS‐CoV‐2 spike", "parameters": "species or system mouse (BALB/c)", "details": "mouse, in vivo"}, "[10]": {"system": "Delta spike S2 subunit", "format": "cell-based, SARS‐CoV‐2 Delta"}, "[11]": {"system": "BA.2.12.1 spike pseudovirus", "format": "cell-based, SARS‐CoV‐2 Omicron BA.2.12.1"}, "[12]": {"system": "SARS‐CoV‐2 spike pseudovirus", "format": "cell-based", "remark": "listed apart in the source"}, "[13]": {"system": "SARS‐CoV‐2 spike S2 subunit", "format": "binding", "details": "pH 9.6"}, "[14]": {"system": "Beta spike pseudovirus", "format": "cell-based, SARS‐CoV‐2 Beta"}, "[15]": {"system": "FPRL‐1 and CXCR2", "details": "receptors involved in chemotaxis of monocytes, neutrophils and lymphocytes; ref [65], [66]; cited from earlier work"}, "[16]": {"system": "S2 subunit of BA.1 spike", "format": "binding, SARS‐CoV‐2 Omicron BA.1"}, "[17]": {"system": "SARS‐CoV‐2 spike pseudovirus (S1 and S2 subunits) attached to 293T‐A2 cells", "format": "cell-based"}, "[18]": {"system": "BA.2 spike pseudovirus", "format": "cell-based, SARS‐CoV‐2 Omicron BA.2"}, "[19]": {"system": "BA.4/5 spike pseudovirus (S1 and S2 subunits) attached to 293T‐A2 cells", "format": "cell-based, SARS‐CoV‐2 Omicron BA.4/5"}, "[20]": {"system": "BA.1 spike S2 subunit", "format": "cell-based, SARS‐CoV‐2 Omicron BA.1"}, "[21]": {"details": "ref [44]; cited from earlier work"}, "[22]": {"details": "no reference given; cited from earlier work"}, "[23]": {"system": "TLR3, TLR7, or TLR9", "details": "binds DNA/RNA, elevates type I interferon response; ref [63], [64]; cited from earlier work"}, "[24]": {"system": "SARS‐CoV‐2 spike pseudovirus", "format": "cell-based", "remark": "listed apart in the source"}, "[25]": {"system": "SARS‐CoV‐2 spike S2 subunit", "format": "cell-based"}, "[26]": {"system": "BA.4/5 spike pseudovirus", "format": "cell-based, SARS‐CoV‐2 Omicron BA.4/5"}, "[27]": {"system": "BA.4/5 spike", "parameters": "species or system mouse (BALB/c)", "details": "mouse, in vivo"}, "[28]": {"system": "NF‐kB p50 and p65 subunits", "details": "leading to immunosuppression; ref [67], [68]; cited from earlier work"}, "[29]": {"system": "BA.4/5 spike S2 subunit", "format": "cell-based, SARS‐CoV‐2 Omicron BA.4/5"}, "[30]": {"system": "BA.3 spike pseudovirus", "format": "cell-based, SARS‐CoV‐2 Omicron BA.3"}, "[31]": {"system": "SARS‐CoV‐2 spike", "parameters": "species or system mouse (BALB/c)", "details": "mouse, in vivo", "remark": "listed apart in the source"}, "[32]": {"system": "Delta spike pseudovirus", "format": "cell-based, SARS‐CoV‐2 Delta"}, "[33]": {"system": "BA.4/5 spike", "parameters": "species or system mouse (BALB/c)", "details": "mouse, in vivo", "remark": "listed apart in the source"}, "[34]": {"system": "SARS‐CoV‐2 spike S1 and S2 subunits", "format": "binding"}, "[35]": {"system": "BA.1 spike pseudovirus (S1 and S2 subunits) attached to 293T‐A2 cells", "format": "cell-based, SARS‐CoV‐2 Omicron BA.1"}, "[36]": {"system": "receptor binding domain (RBD) of spike S1 and the ACE2 receptor", "details": "by binding to the RBD and/or ACE2; ref [36], [37], [41], [42]; cited from earlier work"}, "[37]": {"system": "BA.1 spike pseudovirus", "format": "cell-based, SARS‐CoV‐2 Omicron BA.1"}, "[38]": {"system": "FPR‐2 receptor", "details": "leading to immunosuppression; ref [67], [68]; cited from earlier work"}}, "note": "Entries after “also recorded” stand apart in the source; their conditions may differ. Counter-ions that a name gives are not always drawn.", "data": [{"compound": "CN(C)C(=O)COC(=O)Cc1ccc(OC(=O)c2ccc(NC(=N)N)cc2)cc1", "note": "[CM, camostat mesylate, reference compound]", "values": [{"measurement": "suppression of cellular TMPRSS2 activity", "setting": "[1]", "value": "suppressed cellular TMPRSS2 activity at sub‐micromolar concentrations"}, {"measurement": "antiviral activity against SARS‐CoV‐2", "setting": "[2]", "value": "shows antiviral activity against SARS‐CoV‐2"}, {"measurement": "reduction of pseudovirus‐induced RLU", "setting": "[3]", "value": "about 60%"}]}, {"compound": "O=C(CC1NCCCC1O)Cn1cnc2cc(Br)c(Cl)cc2c1=O", "note": "(stereo not shown) [halofuginone]", "values": [{"measurement": "inhibition of SARS‐CoV‐2 entry and replication", "setting": "[2]", "value": "high inhibition"}]}, {"compound": "COC(=O)C[C@](O)(CCCC(C)(C)O)C(=O)O[C@@H]1C(OC)=C[C@]23CCCN2CCc2cc4c(cc2[C@H]13)OCO4", "note": "[homoharringtonine]", "values": [{"measurement": "inhibition of SARS‐CoV‐2 entry and replication", "setting": "[2]", "value": "high inhibition"}]}, {"compound": "CNC(=O)[C@@H](NC(=O)[C@H](CC(C)C)[C@H](O)C(=O)NO)C(C)(C)C", "note": "[marimastat, reference compound]", "values": [{"measurement": "inhibition of SARS‐CoV‐2‐induced membrane fusion", "setting": "[2]", "value": "inhibitory activity against SARS‐CoV‐2‐induced membrane fusion at sub‐micromolar levels"}, {"measurement": "reduction of pseudovirus‐induced RLU", "setting": "[3]", "value": "~25", "unit": "%"}]}, {"compound": "KRKSFDGFKELILKGRQEIKFKRDIFLVNLRETRPSV [KR‐37, reference compound]", "values": [{"measurement": "inhibition of cell–cell fusion", "setting": "[4]", "value": "showed no inhibition"}, {"measurement": "inhibition of cell–cell fusion", "setting": "[5]", "value": "showed no inhibition"}, {"measurement": "inhibition of cell–cell fusion", "setting": "[6]", "value": "showed no inhibition"}, {"measurement": "inhibition of cell–cell fusion", "setting": "[7]", "value": "showed no inhibition"}]}, {"compound": "LLGDFFRKSKEKIGKEFKRIVQRIKDFLRNLVPRTES [LL‐37]", "values": [{"measurement": "inhibition of cell–cell fusion", "setting": "[4]", "value": "inhibited"}, {"measurement": "inhibition of fusion, pretreatment vs treatment during infection", "setting": "[4]; 10 μg/mL", "value": "stronger inhibition of fusion than treatment during infection"}, {"measurement": "LL‐37 attachment to cell membrane", "setting": "[8]", "value": "could attach to the cell membrane independent of the ACE2 expression"}, {"measurement": "suppression of cellular TMPRSS2 activity", "setting": "[1]", "value": "not LL‐37 or E64d suppressed"}, {"measurement": "IgM responses and titers", "setting": "[9]", "value": "elevated IgM responses and titers"}, {"measurement": "generation of S2' fragment", "setting": "[10]", "value": "consistent result with that of SARS‐CoV‐2"}, {"measurement": "inhibition of pseudovirus entry", "setting": "[11]", "value": "inhibitory effects were compromised"}, {"measurement": "prevention of pseudovirus entry", "setting": "[12]", "value": "prevented; also recorded: not if added 2 h post infection (hpi) and 4 hpi"}, {"measurement": "binding of S2 subunit to immobilised LL‐37", "setting": "[13]", "value": "much stronger binding"}, {"measurement": "inhibition of pseudovirus entry", "setting": "[14]", "value": "significantly inhibit"}, {"measurement": "receptor binding", "setting": "[15]", "value": "directly bind with receptors such as FPRL‐1 and CXCR2"}, {"measurement": "binding of S2 subunit to immobilised LL‐37", "setting": "[16]", "value": "much lower binding"}, {"measurement": "plasma membrane‐attached spike (S1 and S2 subunits)", "setting": "[17]", "value": "equal quantity"}, {"measurement": "inhibition of pseudovirus entry", "setting": "[18]", "value": "inhibitory effects were compromised"}, {"measurement": "plasma membrane‐attached spike (S1 and S2 subunits)", "setting": "[19]", "value": "equal quantity"}, {"measurement": "inhibition of cell–cell fusion", "setting": "[5]", "value": "compromised inhibition"}, {"measurement": "generation of S2' fragment", "setting": "[20]", "value": "did not significantly reduce"}, {"measurement": "attachment to lipid bilayer", "setting": "[21]", "value": "can attach to lipid bilayer via the C‐terminal VPRTES tail"}, {"measurement": "overall positive net charge", "setting": "[22]", "value": "+6"}, {"measurement": "effect on TLR signalling", "setting": "[23]", "value": "augment signalling via TLR3, TLR7, or TLR9"}, {"measurement": "inhibition of cell–cell fusion", "setting": "[6]", "value": "inhibited"}, {"measurement": "inhibition of fusion, pretreatment vs treatment during infection", "setting": "[6]; 10 μg/mL", "value": "stronger inhibition of fusion than treatment during infection"}, {"measurement": "reduction of RLU caused by LL‐37 with endosomal inhibitor", "setting": "[24]", "value": "no significant difference"}, {"measurement": "generation of S2' fragment", "setting": "[25]", "value": "remarkably reduced"}, {"measurement": "inhibition of pseudovirus entry", "setting": "[26]", "value": "inhibitory effects were compromised"}, {"measurement": "IgG responses and titers", "setting": "[27]", "value": "no difference and low levels to background"}, {"measurement": "prevention of NF‐kB translocation", "setting": "[28]", "value": "prevent the translocation of NF‐kB p50 and p65 subunits"}, {"measurement": "generation of S2' fragment", "setting": "[29]", "value": "did not significantly reduce"}, {"measurement": "inhibition of pseudovirus entry", "setting": "[30]", "value": "inhibitory effects were compromised"}, {"measurement": "IgG responses", "setting": "[31]", "value": "enhanced"}, {"measurement": "IgG responses and titers", "setting": "[31]", "value": "no significant difference"}, {"measurement": "inhibition of pseudovirus entry", "setting": "[32]", "value": "significantly inhibit"}, {"measurement": "inhibition of cell–cell fusion", "setting": "[7]", "value": "compromised inhibition"}, {"measurement": "IgM responses and titers", "setting": "[33]", "value": "no difference and low levels to background"}, {"measurement": "spike subunit bound to plasma membrane facilitated by LL‐37", "setting": "[34]", "value": "S2 subunit rather than the S1 subunit"}, {"measurement": "spike subunits bridged by LL‐37 to plasma membranes", "setting": "[34]", "value": "bridged more S2 subunits than S1 subunits"}, {"measurement": "plasma membrane‐attached spike (S1 and S2 subunits)", "setting": "[35]", "value": "equal quantity"}, {"measurement": "block of RBD–ACE2 interaction", "setting": "[36]", "value": "block the interaction"}, {"measurement": "inhibition of pseudovirus entry", "setting": "[37]", "value": "inhibitory effects were compromised"}, {"measurement": "receptor interaction", "setting": "[38]", "value": "interact with the FPR‐2 receptor"}]}, {"compound": "α1‐antitrypsin", "values": [{"measurement": "inhibition of SARS‐CoV‐2 entry and replication", "setting": "[2]", "value": "high inhibition"}]}]}
